Test results reported in PubChem BioAssay (NCI).
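Each compound was tested at five concentrations against cells in 96-well plates for 48 hours. TGI is the concentration that stops growth completely.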 Where a SMILES comes first, the peptide text is derived from it. Side-chain parts run from the residue outwards. The star is where a group is joined. Cbz = O=C(OCc1ccccc1)*; Boc = CC(C)(C)OC(=O)*

Columns and labels:
Assay in all cases: growth of human tumour cells (NCI), 48 h
UACC-257 melanoma = test system: UACC-257 melanoma
NCI-H460 lung = test system: NCI-H460 lung
SK-MEL-28 melanoma = test system: SK-MEL-28 melanoma
U251 CNS = test system: U251 CNS
RPMI-8226 leukemia = test system: RPMI-8226 leukemia
HOP-62 NSCLC = test system: HOP-62 NSCLC
SK-MEL-5 melanoma = test system: SK-MEL-5 melanoma
OVCAR-8 ovarian = test system: OVCAR-8 ovarian
BT-549 breast = test system: BT-549 breast
CCRF-CEM leukemia = test system: CCRF-CEM leukemia
MDA-N = test system: MDA-N
NCI-H226 lung = test system: NCI-H226 lung
UO-31 renal = test system: UO-31 renal
OVCAR-5 ovarian = test system: OVCAR-5 ovarian
MDA-MB-231 breast = test system: MDA-MB-231 breast
UACC-62 melanoma = test system: UACC-62 melanoma
IGROV1 ovarian = test system: IGROV1 ovarian
HL-60(TB) leukemia = test system: HL-60(TB) leukemia
SK-MEL-2 melanoma = test system: SK-MEL-2 melanoma
SF-268 CNS = test system: SF-268 CNS
TK-10 renal = test system: TK-10 renal
SNB-19 CNS = test system: SNB-19 CNS
DU-145 prostate = test system: DU-145 prostate
MCF7 breast = test system: MCF7 breast
NCI-H522 lung = test system: NCI-H522 lung
M14 melanoma = test system: M14 melanoma
HCC-2998 colon = test system: HCC-2998 colon
SW-620 colon = test system: SW-620 colon
SNB-75 CNS = test system: SNB-75 CNS
LOX IMVI melanoma = test system: LOX IMVI melanoma
A549 NSCLC = test system: A549 NSCLC
HT29 colon = test system: HT29 colon
CAKI-1 renal = test system: CAKI-1 renal
786-0 renal = test system: 786-0 renal
MALME-3M melanoma = test system: MALME-3M melanoma
SR leukemia = test system: SR leukemia
K-562 leukemia = test system: K-562 leukemia
HCT-15 colon = test system: HCT-15 colon
NCI-H23 lung = test system: NCI-H23 lung
MOLT-4 leukemia = test system: MOLT-4 leukemia
T-47D breast = test system: T-47D breast
PC-3 prostate = test system: PC-3 prostate
HCT-116 colon = test system: HCT-116 colon
SN12C renal = test system: SN12C renal
ACHN renal = test system: ACHN renal
OVCAR-3 ovarian = test system: OVCAR-3 ovarian
HS 578T breast = test system: HS 578T breast
EKVX NSCLC = test system: EKVX NSCLC
SK-OV-3 ovarian = test system: SK-OV-3 ovarian
SF-295 CNS = test system: SF-295 CNS
NCI/ADR-RES ovarian = test system: NCI/ADR-RES ovarian
A498 renal = test system: A498 renal
MDA-MB-435 = test system: MDA-MB-435
COLO 205 colon = test system: COLO 205 colon
HOP-92 NSCLC = test system: HOP-92 NSCLC
SF-539 CNS = test system: SF-539 CNS
OVCAR-4 ovarian = test system: OVCAR-4 ovarian
KM12 colon = test system: KM12 colon
RXF 393 renal = test system: RXF 393 renal

Measured: TGI

CC(C)(C)OC(=O)NC(CCCCNC(=O)CNC(=O)OCc1ccccc1)C(=O)NC(CCCCNC(=O)CNC(=O)OCc1ccccc1)C(=O)NC(CCCCNC(=O)CNC(=O)OCc1ccccc1)C(=O)NC(CCCCNC(=O)CNC(=O)OCc1ccccc1)C(=O)O (stereo not given) (Boc-K([Gly-Cbz])K([Gly-Cbz])K([Gly-Cbz])K([Gly-Cbz])-OH; configuration not given here)
not listed: HS 578T breast | EKVX NSCLC | SK-OV-3 ovarian | SF-295 CNS | NCI/ADR-RES ovarian | A498 renal | MDA-MB-435 | COLO 205 colon | HOP-92 NSCLC | SF-539 CNS | OVCAR-4 ovarian | KM12 colon | RXF 393 renal
> 100 µM: all other assays above

Cc1ccc(N=C2SC(=NN(C)C)SC2=Nc2ccc(C)cc2)cc1
not listed: BT-549 breast | MCF7 breast | M14 melanoma | OVCAR-3 ovarian
> 100 µM: all other assays above

C=CCOCn1ccc(N)nc1=O
not listed: NCI-H460 lung | U251 CNS | OVCAR-5 ovarian | SK-MEL-2 melanoma | ACHN renal | OVCAR-3 ovarian | NCI/ADR-RES ovarian | A498 renal | HOP-92 NSCLC | OVCAR-4 ovarian | RXF 393 renal
> 100 µM: all other assays above

O=c1[nH]nc(Cc2ccc(Cl)cc2)n1/N=C/c1c[nH]c2ccccc12
not listed: BT-549 breast | COLO 205 colon | RXF 393 renal
> 100 µM: all other assays above
